Measured values as given in ChEMBL document CHEMBL4257522, “Synthesis and preliminary anti-inflammatory and anti-bacterial evaluation of some diflunisal aza-analogs” (Medchemcomm, 2018).
Calls of active or inactive are those of the source. The calls are words filed in the database; no cut-off is given here.

Tests used:
Streptococcus pyogenes [1] = experiment: Potentiation of erythromycin-induced antibacterial activity against Streptococcus pyogenes ATCC 14289 assessed as minimum modulatory concentration up to 32 uM measured after 16 hrs in presence of MIC/4 erythromycin; format: functional; settings: ATCC 14289, 16 h, read-out: MEC
Enterococcus faecium [2] = experiment: Potentiation of geneticin-induced antibacterial activity against Enterococcus faecium ATCC 700221 assessed as minimum modulatory concentration up to 32 uM measured after 16 hrs in presence of MIC/4 geneticin; format: functional; settings: ATCC 700221, 16 h, read-out: MEC
Escherichia coli [3] = experiment: Potentiation of methicillin-induced antibacterial activity against Escherichia coli ATCC 43894 assessed as minimum modulatory concentration up to 32 uM measured after 16 hrs in presence of MIC/4 methicillin; format: functional; settings: ATCC 43894, 16 h, read-out: MEC
Enterococcus faecium [4] = experiment: Potentiation of ciprofloxacin-induced antibacterial activity against Enterococcus faecium ATCC 700221 assessed as minimum modulatory concentration up to 32 uM measured after 16 hrs in presence of MIC/4 ciprofloxacin; format: functional; settings: ATCC 700221, 16 h, read-out: MEC
Enterococcus faecium [5] = experiment: Potentiation of erythromycin-induced antibacterial activity against Enterococcus faecium ATCC 700221 assessed as minimum modulatory concentration up to 32 uM measured after 16 hrs in presence of MIC/4 erythromycin; format: functional; settings: ATCC 700221, 16 h, read-out: MEC
Enterococcus faecium [6] = experiment: Toxicity in Enterococcus faecium ATCC 700221 up to 32 uM measured after 16 hrs; format: organism-based; settings: in vitro
Enterococcus faecium [7] = experiment: Potentiation of methicillin-induced antibacterial activity against Enterococcus faecium ATCC 700221 assessed as minimum modulatory concentration up to 32 uM measured after 16 hrs in presence of MIC/4 methicillin; format: functional; settings: ATCC 700221, 16 h, read-out: MEC
Staphylococcus aureus [8] = experiment: Potentiation of geneticin-induced antibacterial activity against Staphylococcus aureus ATCC 33592 assessed as minimum modulatory concentration up to 32 uM measured after 16 hrs in presence of MIC/4 geneticin; format: functional; settings: ATCC 33592, 16 h, read-out: MEC
Escherichia coli [9] = experiment: Potentiation of ciprofloxacin-induced antibacterial activity against Escherichia coli ATCC 43894 assessed as minimum modulatory concentration up to 32 uM measured after 16 hrs in presence of MIC/4 ciprofloxacin; format: functional; settings: ATCC 43894, 16 h, read-out: MEC
Escherichia coli [10] = experiment: Potentiation of geneticin-induced antibacterial activity against Escherichia coli ATCC 43894 assessed as minimum modulatory concentration up to 32 uM measured after 16 hrs in presence of MIC/4 geneticin; format: functional; settings: ATCC 43894, 16 h, read-out: MEC
Streptococcus pyogenes [11] = experiment: Potentiation of geneticin-induced antibacterial activity against Streptococcus pyogenes ATCC 14289 assessed as minimum modulatory concentration up to 32 uM measured after 16 hrs in presence of MIC/4 geneticin; format: functional; settings: ATCC 14289, 16 h, read-out: MEC
Macrophage cell line [12] = experiment: Induction of prostaglandin production in human PBMC-differentiated macrophages after 24 hrs by ELISA; format: cell-based
Klebsiella pneumoniae [13] = experiment: Potentiation of erythromycin-induced antibacterial activity against Klebsiella pneumoniae ATCC 13883 assessed as minimum modulatory concentration up to 32 uM measured after 16 hrs in presence of MIC/4 erythromycin; format: functional; settings: ATCC 13883, 16 h, read-out: MEC
Pseudomonas aeruginosa [14] = experiment: Toxicity in Pseudomonas aeruginosa ATCC BAA-2108 up to 32 uM measured after 16 hrs; format: organism-based; settings: in vitro
Macrophage cell line [15] = experiment: Antiinflammatory activity in human PBMC-differentiated macrophages assessed as inhibition of LPS-induced prostaglandin production at 0.01 to 10 uM measured after 24 hrs by ELISA; format: functional, cell-based
Staphylococcus aureus [16] = experiment: Potentiation of erythromycin-induced antibacterial activity against Staphylococcus aureus ATCC 33592 assessed as minimum modulatory concentration up to 32 uM measured after 16 hrs in presence of MIC/4 erythromycin; format: functional; settings: ATCC 33592, 16 h, read-out: MEC
Pseudomonas aeruginosa [17] = experiment: Potentiation of methicillin-induced antibacterial activity against Pseudomonas aeruginosa ATCC BAA-2108 assessed as minimum modulatory concentration up to 32 uM measured after 16 hrs in presence of MIC/4 methicillin; format: functional; settings: ATCC BAA-2108, 16 h, read-out: MEC
Pseudomonas aeruginosa [18] = experiment: Potentiation of geneticin-induced antibacterial activity against Pseudomonas aeruginosa ATCC BAA-2108 assessed as minimum modulatory concentration up to 32 uM measured after 16 hrs in presence of MIC/4 geneticin; format: functional; settings: ATCC BAA-2108, 16 h, read-out: MEC
Macrophage cell line [19] = experiment: Antiinflammatory activity in human PBMC-differentiated macrophages assessed as inhibition of LPS-induced IL-8 production at 0.01 to 10 uM measured after 24 hrs by ELISA; format: functional, cell-based
Streptococcus pyogenes [20] = experiment: Potentiation of ciprofloxacin-induced antibacterial activity against Streptococcus pyogenes ATCC 14289 assessed as minimum modulatory concentration up to 32 uM measured after 16 hrs in presence of MIC/4 ciprofloxacin; format: functional; settings: ATCC 14289, 16 h, read-out: MEC
Klebsiella pneumoniae [21] = experiment: Potentiation of tetracycline-induced antibacterial activity against Klebsiella pneumoniae ATCC 13883 assessed as minimum modulatory concentration up to 32 uM measured after 16 hrs in presence of MIC/4 tetracycline; format: functional; settings: ATCC 13883, 16 h, read-out: MEC
Klebsiella pneumoniae [22] = experiment: Toxicity in Klebsiella pneumoniae ATCC 13883 up to 32 uM measured after 16 hrs; format: organism-based
Klebsiella pneumoniae [23] = experiment: Potentiation of ciprofloxacin-induced antibacterial activity against Klebsiella pneumoniae ATCC 13883 assessed as minimum modulatory concentration up to 32 uM measured after 16 hrs in presence of MIC/4 ciprofloxacin; format: functional; settings: ATCC 13883, 16 h, read-out: MEC
Macrophage cell line [24] = experiment: Induction of TNFalpha production in human PBMC-differentiated macrophages after 24 hrs by ELISA; format: cell-based
Staphylococcus aureus [25] = experiment: Potentiation of ciprofloxacin-induced antibacterial activity against Staphylococcus aureus ATCC 33592 assessed as minimum modulatory concentration up to 32 uM measured after 16 hrs in presence of MIC/4 ciprofloxacin; format: functional; settings: ATCC 33592, 16 h, read-out: MEC
Pseudomonas aeruginosa [26] = experiment: Potentiation of tetracycline-induced antibacterial activity against Pseudomonas aeruginosa ATCC BAA-2108 assessed as minimum modulatory concentration up to 32 uM measured after 16 hrs in presence of MIC/4 tetracycline; format: functional; settings: ATCC BAA-2108, 16 h, read-out: MEC
Escherichia coli [27] = experiment: Toxicity in Escherichia coli ATCC 43894 up to 32 uM measured after 16 hrs; format: organism-based
Escherichia coli [28] = experiment: Potentiation of tetracycline-induced antibacterial activity against Escherichia coli ATCC 43894 assessed as minimum modulatory concentration up to 32 uM measured after 16 hrs in presence of MIC/4 tetracycline; format: functional; settings: ATCC 43894, 16 h, read-out: MEC
Streptococcus pyogenes [29] = experiment: Potentiation of methicillin-induced antibacterial activity against Streptococcus pyogenes ATCC 14289 assessed as minimum modulatory concentration up to 32 uM measured after 16 hrs in presence of MIC/4 methicillin; format: functional; settings: ATCC 14289, 16 h, read-out: MEC
Pseudomonas aeruginosa [30] = experiment: Potentiation of erythromycin-induced antibacterial activity against Pseudomonas aeruginosa ATCC BAA-2108 assessed as minimum modulatory concentration up to 32 uM measured after 16 hrs in presence of MIC/4 erythromycin; format: functional; settings: ATCC BAA-2108, 16 h, read-out: MEC
Macrophage cell line [31] = experiment: Induction of IL-1beta production in human PBMC-differentiated macrophages after 24 hrs by ELISA; format: cell-based
Pseudomonas aeruginosa [32] = experiment: Potentiation of ciprofloxacin-induced antibacterial activity against Pseudomonas aeruginosa ATCC BAA-2108 assessed as minimum modulatory concentration up to 32 uM measured after 16 hrs in presence of MIC/4 ciprofloxacin; format: functional; settings: ATCC BAA-2108, 16 h, read-out: MEC
Macrophage cell line [33] = experiment: Cytotoxicity against human PBMC-differentiated macrophages treated for 24 hrs followed by compound washout and measured after 48 hrs by MTT assay; format: cell-based

`O=C(O)c1ccnc(Cc2ccccc2)c1O` gave a minimal effective concentration (Streptococcus pyogenes [1]) greater than 32 µM, a minimal effective concentration (Enterococcus faecium [2]) greater than 32 µM and a minimal effective concentration (Escherichia coli [3]) greater than 32 µM. For the same compound, the minimal effective concentration (Enterococcus faecium [4]) was greater than 32 µM, the minimal effective concentration (Enterococcus faecium [5]) was greater than 32 µM and the Activity (Enterococcus faecium [6]) was “Non-Toxic”. The minimal effective concentration (Enterococcus faecium [7]) was greater than 32 µM, the minimal effective concentration (Staphylococcus aureus [8]) was greater than 32 µM and the minimal effective concentration (Escherichia coli [9]) was greater than 32 µM. For the same compound, the minimal effective concentration (Escherichia coli [10]) was greater than 32 µM, the minimal effective concentration (Streptococcus pyogenes [11]) was greater than 32 µM and the Activity (Macrophage cell line [12]) was “Non-Toxic”. For the same compound, the minimal effective concentration (Klebsiella pneumoniae [13]) was greater than 32 µM, the Activity (Pseudomonas aeruginosa [14]) was “Non-Toxic” and the inhibition (Macrophage cell line [15]) was “inactive”. The minimal effective concentration (Staphylococcus aureus [16]) was greater than 32 µM, the minimal effective concentration (Pseudomonas aeruginosa [17]) was greater than 32 µM and the minimal effective concentration (Pseudomonas aeruginosa [18]) was greater than 32 µM. For the same compound, the inhibition (Macrophage cell line [19]) was “inactive”, the minimal effective concentration (Streptococcus pyogenes [20]) was greater than 32 µM and the minimal effective concentration (Klebsiella pneumoniae [21]) was greater than 32 µM. The Activity (Klebsiella pneumoniae [22]) was “Non-Toxic”, the minimal effective concentration (Klebsiella pneumoniae [23]) was greater than 32 µM and the Activity (Macrophage cell line [24]) was “Non-Toxic”. The minimal effective concentration (Staphylococcus aureus [25]) was greater than 32 µM, the minimal effective concentration (Pseudomonas aeruginosa [26]) was greater than 32 µM and the Activity (Escherichia coli [27]) was “Non-Toxic”. For the same compound, the minimal effective concentration (Escherichia coli [28]) was greater than 32 µM, the minimal effective concentration (Streptococcus pyogenes [29]) was greater than 32 µM and the minimal effective concentration (Pseudomonas aeruginosa [30]) was greater than 32 µM. For the same compound, the Activity (Macrophage cell line [31]) was “Non-Toxic”, the minimal effective concentration (Pseudomonas aeruginosa [32]) was greater than 32 µM and the IC50 (Macrophage cell line [33]) was greater than 100 µM.
`Cc1nc(-c2ccccc2)cc(C(=O)O)c1O` was tested, and the minimal effective concentration (Streptococcus pyogenes [1]) was greater than 32 µM, the minimal effective concentration (Enterococcus faecium [2]) was greater than 32 µM and the minimal effective concentration (Escherichia coli [3]) was greater than 32 µM. For the same compound, the minimal effective concentration (Enterococcus faecium [4]) was greater than 32 µM, the minimal effective concentration (Enterococcus faecium [5]) was greater than 32 µM and the Activity (Enterococcus faecium [6]) was “Non-Toxic”. The minimal effective concentration (Enterococcus faecium [7]) was greater than 32 µM, the minimal effective concentration (Staphylococcus aureus [8]) was 16 µM and the minimal effective concentration (Escherichia coli [9]) was greater than 32 µM. The minimal effective concentration (Escherichia coli [10]) was greater than 32 µM, the minimal effective concentration (Streptococcus pyogenes [11]) was greater than 32 µM and the Activity (Macrophage cell line [12]) was “Non-Toxic”. For the same compound, the minimal effective concentration (Klebsiella pneumoniae [13]) was greater than 32 µM, the Activity (Pseudomonas aeruginosa [14]) was “Non-Toxic” and the inhibition (Macrophage cell line [15]) was “inactive”. It also gave a minimal effective concentration (Staphylococcus aureus [16]) greater than 32 µM, a minimal effective concentration (Pseudomonas aeruginosa [17]) greater than 32 µM and a minimal effective concentration (Pseudomonas aeruginosa [18]) greater than 32 µM. For the same compound, the inhibition (Macrophage cell line [19]) was “inactive”, the minimal effective concentration (Streptococcus pyogenes [20]) was greater than 32 µM and the minimal effective concentration (Klebsiella pneumoniae [21]) was greater than 32 µM. For the same compound, the Activity (Klebsiella pneumoniae [22]) was “Non-Toxic”, the minimal effective concentration (Klebsiella pneumoniae [23]) was greater than 32 µM and the Activity (Macrophage cell line [24]) was “Non-Toxic”. For the same compound, the minimal effective concentration (Staphylococcus aureus [25]) was greater than 32 µM, the minimal effective concentration (Pseudomonas aeruginosa [26]) was greater than 32 µM and the Activity (Escherichia coli [27]) was “Non-Toxic”. It also gave a minimal effective concentration (Escherichia coli [28]) greater than 32 µM, a minimal effective concentration (Streptococcus pyogenes [29]) greater than 32 µM and a minimal effective concentration (Pseudomonas aeruginosa [30]) greater than 32 µM. For the same compound, the Activity (Macrophage cell line [31]) was “Non-Toxic”, the minimal effective concentration (Pseudomonas aeruginosa [32]) was greater than 32 µM and the IC50 (Macrophage cell line [33]) was 90.8 µM.
